Test in all cases: Antibacterial activity, MIC by agar plate dilution method
Common to all, as to type: cell-based

Test [1] relates to H. influenzae ATCC49766. The settings on record: Haemophilus influenzae, 1000 cfu/spot. The protocol: (§1) Antibacterial activity of Compound (I) was examined.
(§2) Minimal inhibitory concentration (MIC: μg/ml) was determined by an agar plate dilution method using a sensitive disc medium as a test medium with an innoculation amount of 1000 cfu/spot in conformance with the standard method established by Japanese Society of Chemotherapy.

In test [2] the test system is P. aeruginosa SR24. The following applies: Pseudomonas aeruginosa, 1000 cfu/spot. The protocol: as §1, §2
Test [3] concerns E. coli NIHJ JC-2. The following applies: Escherichia coli, NIHJJC2, 1000 cfu/spot. As for the experimental part:
as §1, §2

In test [4] the test system is S. pneumoniae Type I. The settings on record: Streptococcus pneumoniae, 1000 cfu/spot. As for the experimental part: as §1, §2

≈ marks a conversion by molar mass, not a printed value.

Results on 4 molecules are retold here after patent US20070219191A1, “3-Pyridinium Methyl Cephem Compound” (priority 2004, published 2007).

Turning to `CC(C)(O/N=C(\C(=O)NC1C(=O)N2C(C(=O)[O-])=C(C[n+]3ccc(NC4CCNC4)cc3)CSC12)c1nsc(N)n1)C(=O)O` (stereo not shown) [Example 5], the MIC in test [1] stood at 0.063 µg/mL (≈ 0.0997 µM); in test [2], 0.5 µg/mL (≈ 0.792 µM); in test [3] it was 0.125 µg/mL (≈ 0.198 µM); in test [4] it was 0.125 µg/mL (≈ 0.198 µM).

In the case of `Cc1c(N)[nH]c2ccc[n+](CC3=C(C(=O)[O-])N4C(=O)C(NC(=O)/C(=N\OC(C)(C)C(=O)O)c5nsc(N)n5)C4SC3)c12` (stereo not shown) [Example 10], the MIC was 0.016 µg/mL (≈ 0.026 µM) in test [1], 0.5 µg/mL (≈ 0.812 µM) in test [2], 0.25 µg/mL (≈ 0.406 µM) in test [3] and 0.125 µg/mL (≈ 0.203 µM) in test [4].

In the case of `CC(C)(O/N=C(\C(=O)NC1C(=O)N2C(C(=O)[O-])=C(C[n+]3cccc4c3nc(N)n4C3CCNCC3)CSC12)c1nsc(N)n1)C(=O)O` (stereo not shown) [Example 12], the MIC in test [1] came to 0.032 µg/mL (≈ 0.0467 µM); in test [2] it was 0.25 µg/mL (≈ 0.365 µM); in test [3], 0.125 µg/mL (≈ 0.182 µM); in test [4] it was 0.25 µg/mL (≈ 0.365 µM).

`C[C@H](N)CCn1c(N)nc2c1ccc[n+]2CC1=C(C(=O)[O-])N2C(=O)C(NC(=O)/C(=N\OC(C)(C)C(=O)O)c3nsc(N)n3)C2SC1` (stereo partly shown) [Example 19]: the MIC turned out to be 0.032 µg/mL (≈ 0.0475 µM) in test [1], 0.5 µg/mL (≈ 0.742 µM) in test [2], 0.125 µg/mL (≈ 0.186 µM) in test [3] and 0.125 µg/mL (≈ 0.186 µM) in test [4].
